For one assay, the target named is T1, PAR-2 receptor (Homo sapiens, UniProt P55085).
T1 construct: endogenous in cells
T1 sequence (P55085 26-397): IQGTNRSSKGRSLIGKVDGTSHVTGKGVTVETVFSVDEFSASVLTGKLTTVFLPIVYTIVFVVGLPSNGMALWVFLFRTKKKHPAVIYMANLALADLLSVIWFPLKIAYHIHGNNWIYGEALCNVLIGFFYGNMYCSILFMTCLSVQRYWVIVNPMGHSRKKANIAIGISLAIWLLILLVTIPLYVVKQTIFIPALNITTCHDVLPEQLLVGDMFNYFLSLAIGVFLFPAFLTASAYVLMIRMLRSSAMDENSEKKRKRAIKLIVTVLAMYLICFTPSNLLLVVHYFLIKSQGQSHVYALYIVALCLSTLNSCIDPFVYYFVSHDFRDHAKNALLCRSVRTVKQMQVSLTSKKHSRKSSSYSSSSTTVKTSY
Put plainly: Calcium imaging, response to the PAR-2 activating peptide (selectivity control). The assay is classed as cell-based. The conditions noted are these: PAR-2 AP 100 µM; antagonist 10 µM. The method, then: For calcium fluorescence measurements, cells were incubated with 5 µM Fura-2AM ester (Alexis Biochemicals) for 40 minutes at 37°C. Intracellular calcium levels were measured and recorded with a dynamic image analysis system (Laboratory Automation 2.0; RC Software). Fluorescence was measured during excitation at 340 and 380 nm, and after correction for the individual background fluorescence signals, the ratio of the fluorescence at both excitation wavelengths (Ratio340/380) was monitored. Experiments were performed using buffer solution containing (in mM): 150 NaCl, 6 KCl, 1 MgCl2, 1.5 CaCl2, 10 glucose, 10 HEPES at pH 7.4. Cells were stimulated with cinnamaldehyde (0.1–3000 µM), acrolein (0.1–3000 µM), CSE (0.001–0.5 OD), capsaicin (1 µM) and the activating peptide (SLIGKV-NH2) of the human PAR-2 receptor (hPAR-2 AP; 100 µM), or their respective vehicles (0.3% DMSO,aqueous buffer or 1% ethanol). HC-030031 and AP18 vehicles (used in all the in vitro experiments) were 3% DMSO and 1% DMSO, respectively. Results are expressed as the increase of Ratio340/380 over the baseline normalized to the maximum effect induced by ionomycin (5 µM) added at the end of the experiment.

Assay [1] concerns C57BL/6 mice, Trpa1+/+ or Trpa1-/- mice. The experiment in a line: KC (CXCL-1) release in bronchoalveolar lavage fluid, ELISA. The assay is classed as in vivo, mouse. The settings on record: HC-030031 300 mg/kg i.g.; L-733,060 2 µmol/kg i.v.; C57BL/6 mice. The method, then:
To defunctionalize/desensitize TRPV1 expressing primary sensory neurons, resiniferatoxin (RTX) was administered to C57BL/6 mice, as previously described, [40]. Briefly, mice were treated subcutaneously (s.c.) with a single injection of RTX (50 µg/kg) or its vehicle (10% ethanol and 10% tween 80 in isotonic saline) into the scruff of the neck under a light ether anesthesia to avoid unnecessary pain. Experiments were carried out 7 days after RTX treatment when responses to both TRPV1 and TRPA1 agonists in the treated mice were abolished, [40].
Trpa1^+/+ or Trpa1^−/− B6129P mice (5 per group) were exposed acutely to the cigarette smoke (CS) produced with commercial cigarettes (Marlboro Red, 12 mg of tar, 0.9 mg of nicotine each), by using a “nose-only” exposure unit. The smoke produced by cigarette burning was introduced into the exposure chamber (inner volume = 11.61 l) with the airflow generated by a mechanical ventilator (7025 Rodent Ventilator, Ugo Basile) at a rate of 250 ml/min [58]. A second mechanical ventilator was used to provide room air for dilution (1∶8) of the smoke stream. Mice were exposed to the smoke of 5 cigarettes per exposure period, twice daily, for 3 consecutive days, and sacrificed 24 hours later. Genotype-, age-, strain- and sex-matched control animals were exposed to air only in the same manner for the same duration of time. Anesthetized C57BL/6, and Trpa1^+/+ or Trpa1^−/− (C57BL/6) mice were intratracheally administered with (30 µl) acrolein (5 mM), capsaicin (100 µM), SP (25 nM) and CSE (1 OD) or their vehicles (isotonic saline, 1% ethanol in isotonic saline and isotonic saline) and sacrificed 24 hours later. The NK1 receptor antagonist, L-733,060 (2 µmol/kg i.v.; Tocris) or its vehicle (isotonic saline) were administered 15 min before the stimulus, and i.g. HC-030031 (300 mg/kg) or its vehicle (0.5% CMC in isotonic saline 0.9%) were administered 1 hour before the stimulus. In another set of experiments ACR (5 mM, i.t.), or its vehicle, has been administered in C57BL/6 mice desensitized to RTX (50 µg/kg; s.c.). Animals were sacrificed 24 hours after the last exposure/treatment with an overdose of anesthetic followed by exsanguination, and the lungs were lavaged using a cannula inserted into the trachea and instilling 1 ml of Hank's Buffer added with HEPES 10 mM and EDTA 10 mM three times. […] BAL were centrifuged at 200× g at 4°C for 10 min, and the cell-free supernatants were stored at −80°C for cytokine determination. Frozen cell-free BAL was analyzed for keratinocyte chemoattractant (CXCL-1/KC, the murine analogue of IL-8) release by using a commercial ELISA-assay (Invitrogen).

For assay [2], the system named is IL-8 release from SAEC, NHLF and HBSMC. Put plainly: IL-8 release from human airway/lung cells in primary culture, ELISA. The assay is classed as cell-based. The conditions noted are these: HC-030031 30 µM, AP18 10 µM. The method, then: For IL-8 ELISA assays, HBSMC, SAEC, and NHLF were seeded in complete culture medium in 48-well plates, grown to ∼80–90% confluence, and incubated overnight in serum-free medium before treatments. All the treatments were performed in serum free medium. Cells were pretreated with the selective TRPA1 antagonists, HC-030031 and AP18, or their vehicles, for 30–60 min before treatment with freshly prepared acrolein, CSE, TNF-α and IL-1β for 18 hours at 37°C with 5% CO2. Subsequently, supernatants were collected and stored at −80°C for ELISA assay. Human IL-8 was measured using a paired antibody quantitative ELISA kit (Invitrogen) (detection limit: 5 pg/ml). The assays were performed according to the manufacturer's instructions. Vitality assay method (MTT reduction assay) is available online as (Text S1).

Turning to `CC(C)c1ccc(NC(=O)Cn2cnc3c2c(=O)n(C)c(=O)n3C)cc1` [HC-030031], at PAR-2 receptor, the “effect of antagonist on calcium response to the PAR-2 activating peptide” value is recorded as “did not affect”. In assay [1], the “effect of pretreatment on KC release evoked by acrolein or CSE” value is reported as “significantly reduced”. Besides, in assay [2], the “effect of antagonist on CSE-evoked IL-8 release” value is on record as “reduced”, the “effect of antagonist on IL-8 release induced by IL-1β or TNF-α” value is given as “not affected” and the “effect of antagonist on acrolein-evoked IL-8 release” value is reported as “significantly reduced”.

The record behind these values is article PMC3419223, “Transient Receptor Potential Ankyrin 1 Channel Localized to Non-Neuronal Airway Cells Promotes Non-Neurogenic Inflammation” (PLoS ONE, 2012).
